The results in this text go back to ChEMBL document CHEMBL5649166, “RIP3 induces apoptosis independent of pronecrotic kinase activity” (Mol Cell, 2014).

Each structure is given as a SMILES string.

In test [1] the target is T1, cGMP-dependent protein kinase 1 (Homo sapiens) (UniProt Q13976).
T1 sequence (whole entry): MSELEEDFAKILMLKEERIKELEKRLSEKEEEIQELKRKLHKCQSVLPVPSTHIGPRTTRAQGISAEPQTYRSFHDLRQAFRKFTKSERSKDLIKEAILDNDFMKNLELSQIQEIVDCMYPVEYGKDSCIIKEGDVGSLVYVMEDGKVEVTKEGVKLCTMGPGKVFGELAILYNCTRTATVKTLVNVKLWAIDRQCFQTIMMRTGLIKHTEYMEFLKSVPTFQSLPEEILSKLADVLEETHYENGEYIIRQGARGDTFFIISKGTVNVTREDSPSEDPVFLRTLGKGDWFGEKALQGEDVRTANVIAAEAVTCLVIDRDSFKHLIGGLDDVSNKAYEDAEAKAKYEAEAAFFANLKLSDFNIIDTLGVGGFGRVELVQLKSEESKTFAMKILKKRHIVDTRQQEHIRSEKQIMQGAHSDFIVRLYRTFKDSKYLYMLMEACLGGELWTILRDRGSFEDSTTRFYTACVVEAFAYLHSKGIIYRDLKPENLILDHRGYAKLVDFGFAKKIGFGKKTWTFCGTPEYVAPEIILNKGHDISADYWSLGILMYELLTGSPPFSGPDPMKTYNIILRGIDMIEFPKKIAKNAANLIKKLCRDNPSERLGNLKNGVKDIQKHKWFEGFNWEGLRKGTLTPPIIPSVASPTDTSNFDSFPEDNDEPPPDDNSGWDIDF
Description: Inhibition of human PKG1a using LRRASLG as substrate at 1 uM in presence of 32P-ATP by Hotspot assay relative to control; values are per cent of control.

Test [2] deals with Mitogen-activated protein kinase 9 (Homo sapiens) (UniProt P45984). Description: Inhibition of human JNK2 using ATF2 as substrate at 1 uM in presence of 32P-ATP by Hotspot assay relative to control; values are per cent of control.
For test [3], the target named is Insulin receptor (Homo sapiens) (UniProt P06213). Description: Inhibition of human IR using poly[Glu:Tyr] (4:1) as substrate at 1 uM in presence of 32P-ATP by Hotspot assay relative to control; values are per cent of control.
Insulin receptor (Homo sapiens), sequence (P06213 28-758 limits assumed): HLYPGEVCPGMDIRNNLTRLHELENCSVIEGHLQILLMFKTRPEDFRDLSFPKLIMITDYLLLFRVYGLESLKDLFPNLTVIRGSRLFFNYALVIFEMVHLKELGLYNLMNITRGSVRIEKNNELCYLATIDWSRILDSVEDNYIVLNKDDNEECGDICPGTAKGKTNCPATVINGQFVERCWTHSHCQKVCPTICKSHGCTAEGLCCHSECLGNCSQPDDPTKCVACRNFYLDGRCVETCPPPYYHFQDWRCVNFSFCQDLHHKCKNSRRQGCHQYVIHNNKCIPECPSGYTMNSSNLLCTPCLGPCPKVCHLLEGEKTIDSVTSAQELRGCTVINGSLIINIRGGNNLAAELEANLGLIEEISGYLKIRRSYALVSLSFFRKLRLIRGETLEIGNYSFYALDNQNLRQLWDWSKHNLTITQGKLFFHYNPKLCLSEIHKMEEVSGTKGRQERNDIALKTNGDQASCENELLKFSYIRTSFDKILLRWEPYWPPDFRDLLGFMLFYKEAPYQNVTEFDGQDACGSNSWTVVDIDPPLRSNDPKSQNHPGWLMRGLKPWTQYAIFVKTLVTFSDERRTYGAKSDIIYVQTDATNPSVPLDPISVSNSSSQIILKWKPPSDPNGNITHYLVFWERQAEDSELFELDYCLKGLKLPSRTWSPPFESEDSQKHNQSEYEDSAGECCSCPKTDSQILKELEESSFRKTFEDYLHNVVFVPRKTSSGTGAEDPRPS
Insulin receptor (Homo sapiens), sequence (P06213 763-1382 limits assumed): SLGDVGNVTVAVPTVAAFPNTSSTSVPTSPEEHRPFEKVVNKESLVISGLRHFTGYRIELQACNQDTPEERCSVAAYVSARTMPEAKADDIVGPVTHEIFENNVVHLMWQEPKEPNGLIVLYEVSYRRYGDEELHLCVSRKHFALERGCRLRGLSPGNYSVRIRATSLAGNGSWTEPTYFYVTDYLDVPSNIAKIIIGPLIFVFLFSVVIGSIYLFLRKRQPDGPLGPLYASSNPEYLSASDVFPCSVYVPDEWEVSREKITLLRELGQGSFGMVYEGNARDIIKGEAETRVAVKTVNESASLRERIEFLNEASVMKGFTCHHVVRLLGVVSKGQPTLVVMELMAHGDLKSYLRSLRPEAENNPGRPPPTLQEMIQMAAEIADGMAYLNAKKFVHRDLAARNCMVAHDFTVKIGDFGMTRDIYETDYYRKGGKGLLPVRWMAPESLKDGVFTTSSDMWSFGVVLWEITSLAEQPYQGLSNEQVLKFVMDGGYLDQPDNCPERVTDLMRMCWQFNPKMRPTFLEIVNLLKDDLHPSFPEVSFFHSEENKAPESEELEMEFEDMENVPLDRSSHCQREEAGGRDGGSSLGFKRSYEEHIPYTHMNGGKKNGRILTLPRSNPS
Test [4] concerns the target T2, Dual specificity tyrosine-phosphorylation-regulated kinase 4 (Homo sapiens) (UniProt Q9NR20).
T2 sequence (whole entry): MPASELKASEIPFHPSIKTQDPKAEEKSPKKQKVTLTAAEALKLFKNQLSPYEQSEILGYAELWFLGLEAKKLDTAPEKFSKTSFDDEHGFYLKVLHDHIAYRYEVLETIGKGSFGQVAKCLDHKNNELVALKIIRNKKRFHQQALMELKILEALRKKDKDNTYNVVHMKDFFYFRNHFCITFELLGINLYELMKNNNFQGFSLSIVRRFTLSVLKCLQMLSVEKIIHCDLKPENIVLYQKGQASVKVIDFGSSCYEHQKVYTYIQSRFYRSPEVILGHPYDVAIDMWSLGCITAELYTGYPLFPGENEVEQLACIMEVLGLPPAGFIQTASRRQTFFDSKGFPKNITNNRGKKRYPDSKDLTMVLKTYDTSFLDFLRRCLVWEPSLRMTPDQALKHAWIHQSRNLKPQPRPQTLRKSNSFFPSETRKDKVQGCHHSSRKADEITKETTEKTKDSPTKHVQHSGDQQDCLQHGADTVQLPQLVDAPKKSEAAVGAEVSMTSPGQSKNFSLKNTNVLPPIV
In words: Inhibition of human DYRK4 using RRRFRPASPLRGPPK as substrate at 1 uM in presence of 32P-ATP by Hotspot assay relative to control; values are per cent of control.

In test [5] the target is T3, Serine/threonine-protein kinase D3 (Homo sapiens) (UniProt O94806).
T3 sequence (whole entry): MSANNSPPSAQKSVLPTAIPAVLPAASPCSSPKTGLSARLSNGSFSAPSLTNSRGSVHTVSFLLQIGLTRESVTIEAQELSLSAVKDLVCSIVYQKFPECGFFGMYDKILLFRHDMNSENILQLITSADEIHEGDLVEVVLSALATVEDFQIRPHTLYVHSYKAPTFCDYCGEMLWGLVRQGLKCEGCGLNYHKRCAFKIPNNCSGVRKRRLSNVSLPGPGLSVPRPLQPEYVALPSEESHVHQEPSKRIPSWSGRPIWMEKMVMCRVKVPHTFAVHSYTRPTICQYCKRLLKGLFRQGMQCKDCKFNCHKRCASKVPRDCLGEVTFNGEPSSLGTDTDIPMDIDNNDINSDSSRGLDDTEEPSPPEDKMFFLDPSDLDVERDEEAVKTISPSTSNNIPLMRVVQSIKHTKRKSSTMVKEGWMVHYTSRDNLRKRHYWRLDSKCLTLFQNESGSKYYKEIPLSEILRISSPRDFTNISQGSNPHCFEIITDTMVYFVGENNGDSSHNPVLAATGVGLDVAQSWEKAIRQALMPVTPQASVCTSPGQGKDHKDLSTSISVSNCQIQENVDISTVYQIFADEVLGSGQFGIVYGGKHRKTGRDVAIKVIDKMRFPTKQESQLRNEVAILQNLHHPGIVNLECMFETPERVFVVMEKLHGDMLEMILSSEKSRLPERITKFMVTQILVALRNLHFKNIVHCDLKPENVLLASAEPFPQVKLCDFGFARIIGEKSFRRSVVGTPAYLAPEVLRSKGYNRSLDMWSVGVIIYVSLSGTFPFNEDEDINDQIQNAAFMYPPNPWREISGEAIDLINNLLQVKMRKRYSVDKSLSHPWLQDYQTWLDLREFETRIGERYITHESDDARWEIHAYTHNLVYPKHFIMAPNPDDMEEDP
Description: Inhibition of human PKCnu/PRKD3 using KKLNRTLSVA as substrate at 1 uM in presence of 32P-ATP by Hotspot assay relative to control; values are per cent of control.

For test [6], the target named is Tyrosine-protein kinase ABL1 (Homo sapiens) (UniProt P00519). In words: Inhibition of human ABL1 using EAIYAAPFAKKK as substrate at 1 uM in presence of 32P-ATP by Hotspot assay relative to control; values are per cent of control.
Tyrosine-protein kinase ABL1 (Homo sapiens), sequence (P00519 whole entry): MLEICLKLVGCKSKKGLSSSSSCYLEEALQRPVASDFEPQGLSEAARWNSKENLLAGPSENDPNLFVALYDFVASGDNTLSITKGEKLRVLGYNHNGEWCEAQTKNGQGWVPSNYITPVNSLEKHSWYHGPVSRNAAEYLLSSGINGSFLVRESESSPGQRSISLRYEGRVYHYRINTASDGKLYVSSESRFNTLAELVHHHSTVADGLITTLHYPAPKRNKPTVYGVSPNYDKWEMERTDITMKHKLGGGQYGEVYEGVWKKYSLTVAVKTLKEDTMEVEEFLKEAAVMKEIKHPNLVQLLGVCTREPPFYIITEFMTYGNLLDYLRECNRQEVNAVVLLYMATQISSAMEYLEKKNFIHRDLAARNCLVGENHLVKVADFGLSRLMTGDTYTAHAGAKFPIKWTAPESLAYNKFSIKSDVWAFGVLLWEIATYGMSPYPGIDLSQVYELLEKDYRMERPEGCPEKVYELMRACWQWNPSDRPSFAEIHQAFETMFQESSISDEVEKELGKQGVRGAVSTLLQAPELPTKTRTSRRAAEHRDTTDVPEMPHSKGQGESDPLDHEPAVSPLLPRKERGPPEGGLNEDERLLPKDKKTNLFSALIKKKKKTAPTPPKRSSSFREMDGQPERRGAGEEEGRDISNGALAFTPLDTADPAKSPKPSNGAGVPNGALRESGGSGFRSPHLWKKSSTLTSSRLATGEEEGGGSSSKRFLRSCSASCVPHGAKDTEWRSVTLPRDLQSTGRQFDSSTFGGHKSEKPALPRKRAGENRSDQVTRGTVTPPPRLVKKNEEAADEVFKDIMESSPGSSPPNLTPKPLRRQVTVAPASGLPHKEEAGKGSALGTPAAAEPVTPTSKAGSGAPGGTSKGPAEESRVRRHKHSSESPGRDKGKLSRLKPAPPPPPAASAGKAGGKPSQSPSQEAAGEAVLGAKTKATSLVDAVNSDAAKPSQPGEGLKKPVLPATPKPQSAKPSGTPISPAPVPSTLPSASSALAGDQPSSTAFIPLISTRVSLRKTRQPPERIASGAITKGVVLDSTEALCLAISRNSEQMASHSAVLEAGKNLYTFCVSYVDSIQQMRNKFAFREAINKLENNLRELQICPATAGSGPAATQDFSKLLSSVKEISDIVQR
In test [7] the target is Vascular endothelial growth factor receptor 1 (Homo sapiens) (UniProt P17948). In words: Inhibition of human FLT1/VEGFR1 using poly[Glu:Tyr] (4:1) as substrate at 1 uM in presence of 32P-ATP by Hotspot assay relative to control; values are per cent of control.
Vascular endothelial growth factor receptor 1 (Homo sapiens), sequence (P17948 whole entry): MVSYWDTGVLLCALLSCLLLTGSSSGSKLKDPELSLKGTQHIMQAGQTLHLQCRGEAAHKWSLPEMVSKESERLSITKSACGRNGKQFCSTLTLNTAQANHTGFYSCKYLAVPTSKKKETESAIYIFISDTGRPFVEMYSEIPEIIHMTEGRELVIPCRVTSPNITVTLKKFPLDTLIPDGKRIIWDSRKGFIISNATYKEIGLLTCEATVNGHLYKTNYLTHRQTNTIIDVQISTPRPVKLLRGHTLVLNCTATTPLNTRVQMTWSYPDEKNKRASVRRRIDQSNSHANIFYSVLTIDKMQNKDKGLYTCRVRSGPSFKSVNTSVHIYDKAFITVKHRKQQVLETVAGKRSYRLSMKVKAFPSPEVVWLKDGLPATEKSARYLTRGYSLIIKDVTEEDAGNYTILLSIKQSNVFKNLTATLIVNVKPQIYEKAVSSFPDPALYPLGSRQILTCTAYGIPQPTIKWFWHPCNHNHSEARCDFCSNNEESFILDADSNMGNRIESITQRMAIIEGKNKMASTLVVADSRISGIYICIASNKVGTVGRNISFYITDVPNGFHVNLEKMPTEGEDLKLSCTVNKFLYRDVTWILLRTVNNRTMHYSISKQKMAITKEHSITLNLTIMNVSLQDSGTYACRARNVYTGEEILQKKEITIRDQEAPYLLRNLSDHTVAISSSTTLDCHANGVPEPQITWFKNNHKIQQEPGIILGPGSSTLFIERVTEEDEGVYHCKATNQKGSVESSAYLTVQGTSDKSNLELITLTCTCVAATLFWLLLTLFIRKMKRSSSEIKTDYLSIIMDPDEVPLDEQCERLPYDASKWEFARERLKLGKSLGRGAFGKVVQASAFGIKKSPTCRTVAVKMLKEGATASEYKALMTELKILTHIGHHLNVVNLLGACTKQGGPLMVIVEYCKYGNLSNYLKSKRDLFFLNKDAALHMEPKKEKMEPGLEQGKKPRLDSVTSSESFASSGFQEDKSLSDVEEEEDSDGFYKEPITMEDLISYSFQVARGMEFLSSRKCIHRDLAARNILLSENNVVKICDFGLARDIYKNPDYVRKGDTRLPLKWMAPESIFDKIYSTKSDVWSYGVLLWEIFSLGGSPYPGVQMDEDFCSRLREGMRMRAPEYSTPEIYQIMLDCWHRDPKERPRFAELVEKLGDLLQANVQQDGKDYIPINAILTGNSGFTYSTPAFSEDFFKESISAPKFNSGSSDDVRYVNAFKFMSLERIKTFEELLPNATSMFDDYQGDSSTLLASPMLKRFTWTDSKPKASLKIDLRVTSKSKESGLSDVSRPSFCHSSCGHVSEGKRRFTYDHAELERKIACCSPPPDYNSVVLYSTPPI
Test [8] has as its target Receptor tyrosine-protein kinase erbB-4 (Homo sapiens) (UniProt Q15303). In words: Inhibition of human ERBB4/HER4 using poly[Glu:Tyr] (4:1) as substrate at 1 uM in presence of 32P-ATP by Hotspot assay relative to control; values are per cent of control.

Receptor tyrosine-protein kinase erbB-4 (Homo sapiens), sequence (Q15303 whole entry): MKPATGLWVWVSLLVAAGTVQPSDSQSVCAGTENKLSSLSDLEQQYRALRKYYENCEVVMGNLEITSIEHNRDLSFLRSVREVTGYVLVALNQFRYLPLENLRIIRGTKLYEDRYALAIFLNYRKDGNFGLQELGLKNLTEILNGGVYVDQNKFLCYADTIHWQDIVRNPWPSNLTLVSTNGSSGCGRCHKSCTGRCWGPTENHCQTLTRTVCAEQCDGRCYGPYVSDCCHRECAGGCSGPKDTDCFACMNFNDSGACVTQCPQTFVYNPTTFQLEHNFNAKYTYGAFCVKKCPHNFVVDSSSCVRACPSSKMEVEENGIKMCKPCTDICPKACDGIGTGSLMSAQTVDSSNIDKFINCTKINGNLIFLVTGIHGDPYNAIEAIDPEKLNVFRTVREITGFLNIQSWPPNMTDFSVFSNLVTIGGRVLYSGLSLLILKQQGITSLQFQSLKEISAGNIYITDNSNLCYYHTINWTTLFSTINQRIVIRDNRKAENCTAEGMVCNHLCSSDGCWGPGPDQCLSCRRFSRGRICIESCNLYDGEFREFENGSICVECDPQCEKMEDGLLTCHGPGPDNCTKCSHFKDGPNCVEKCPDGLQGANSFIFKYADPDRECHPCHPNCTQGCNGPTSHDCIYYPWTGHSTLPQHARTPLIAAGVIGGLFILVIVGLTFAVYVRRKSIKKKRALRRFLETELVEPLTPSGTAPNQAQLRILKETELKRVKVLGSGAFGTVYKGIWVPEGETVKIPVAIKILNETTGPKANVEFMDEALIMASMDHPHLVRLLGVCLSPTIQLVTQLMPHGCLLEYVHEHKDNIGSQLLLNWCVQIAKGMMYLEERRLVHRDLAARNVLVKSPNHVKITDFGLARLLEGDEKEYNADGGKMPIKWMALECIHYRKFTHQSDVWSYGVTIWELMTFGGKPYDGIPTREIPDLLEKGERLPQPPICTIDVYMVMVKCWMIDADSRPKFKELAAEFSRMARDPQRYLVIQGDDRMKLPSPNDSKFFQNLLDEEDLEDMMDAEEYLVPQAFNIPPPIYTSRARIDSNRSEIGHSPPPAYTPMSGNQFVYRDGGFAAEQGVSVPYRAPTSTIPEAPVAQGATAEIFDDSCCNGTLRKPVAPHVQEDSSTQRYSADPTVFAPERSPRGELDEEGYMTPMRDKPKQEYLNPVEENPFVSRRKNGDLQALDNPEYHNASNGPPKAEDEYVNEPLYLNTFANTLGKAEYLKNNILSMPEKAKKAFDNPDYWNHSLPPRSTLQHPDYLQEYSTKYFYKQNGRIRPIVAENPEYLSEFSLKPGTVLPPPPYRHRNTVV

On to `Cc1cc(-c2cnc(N)c3c(-c4ccc5scnc5c4)csc23)n(C)n1`, for which the residual activity in test [1] stood at 69.9%; in test [2] it was 69.7%; in test [3], 101%; in test [4] it was 98.2%; in test [5], 33.4%; in test [6], 6.1%. The residual activity is 96.8% in test [7] and 98.4% in test [8].

Take `CC(C)S(=O)(=O)c1ccc2nccc(Nc3ccc4scnc4c3)c2c1`: the residual activity in test [1] came to 90.4%; in test [2], 106%; in test [3], 90.4%; in test [4], 102%; in test [5], 95.4%; in test [6] it was 25.8%. For the same molecule, the residual activity in test [7] is 85%; in test [8], 89.3%.

With `CNC(=O)c1ccc2c(c1)ncn2-c1ccc(CC(=O)OC(C)(C)C)cc1`, the residual activity in test [1] is 90.1%; in test [2], 96.6%; in test [3], 90%; in test [4] it was 99.6%; in test [5] it was 101%; in test [6], 92.7%. Moreover, the residual activity in test [7] is 72.5%; in test [8], 93.8%.
